This passage reports Ki results from patent publication US7723329B2, “Substituted-3-sulfonylindazole derivatives as 5-hydroxytryptamine-6 ligands” (Wyeth LLC, priority 2005, dated 2010).

Counter-ions that a name gives are not always drawn.

T1 sequence (P50406 whole entry): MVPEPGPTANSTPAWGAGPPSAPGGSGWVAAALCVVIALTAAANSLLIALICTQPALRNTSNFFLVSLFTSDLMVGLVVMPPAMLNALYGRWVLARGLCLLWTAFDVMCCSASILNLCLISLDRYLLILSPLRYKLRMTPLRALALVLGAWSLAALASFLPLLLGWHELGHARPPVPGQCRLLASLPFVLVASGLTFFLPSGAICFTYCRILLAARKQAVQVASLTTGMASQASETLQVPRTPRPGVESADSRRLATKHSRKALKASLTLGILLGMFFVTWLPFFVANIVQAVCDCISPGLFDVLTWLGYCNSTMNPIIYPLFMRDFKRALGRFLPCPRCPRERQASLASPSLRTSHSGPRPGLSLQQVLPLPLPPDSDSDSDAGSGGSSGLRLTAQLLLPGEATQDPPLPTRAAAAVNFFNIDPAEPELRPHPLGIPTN

The experiment has as its target T1, human cloned 5-HT6 receptors (Homo sapiens, UniProt P50406).
T1 construct: expressed in transfected cells; host or cells: HeLa cells
The experiment in a line: 5-HT6 binding affinity, [3H]-LSD displacement. The conditions noted are these: membranes of Hela cells expressing human cloned 5-HT6 receptors; [3H]-LSD 3.0 nM; 120 minutes at room temperature. Here is the method: The affinity of test compounds for the serotonin 5-HT6 receptor was evaluated in the following manner. Cultured Hela cells expressing human cloned 5-HT6 receptors were harvested and centrifuged at low speed (1,000×g) for 10.0 minutes to remove the culture media. The harvested cells were suspended in half volume of fresh physiological phosphate buffered saline solution and recentrifuged at the same speed. This operation was repeated. The collected cells were then homogenized in ten volumes of 50 mM Tris.HCl (pH 7.4) and 0.5 mM EDTA. The homogenate was centrifuged at 40,000×g for 30.0 min and the precipitate was collected. The obtained pellet was resuspended in 10 volumes of Tris.HCl buffer and recentrifuged at the same speed. The final pellet was suspended in a small volume of Tris.HCl buffer and the tissue protein content was determined in aliquots of 10-25 μl volumes. […] The volume of the suspended cell membranes was adjusted to give a tissue protein concentration of 1.0 mg/ml of suspension. The prepared membrane suspension (10 times concentrated) was aliquoted in 1.0 ml volumes and stored at −70° C. until used in subsequent binding experiments.
The bound complex caught on the filter disk was allowed to air dry and the radioactivity is measured in a Packard TopCount® equipped with six photomultiplier detectors, after the addition of 40.0 μl Microscint®-20 scintillant to each shallow well. The unifilter plate was heat-sealed and counted in a PackardTopCount® with a tritium efficiency of 31.0%.
Specific binding to the 5-HT6 receptor was defined as the total radioactivity bound less the amount bound in the presence of 10.0 μM unlabeled methiothepin. Binding in the presence of varying concentrations of test compound was expressed as a percentage of specific binding in the absence of test compound. The results were plotted as log % bound versus log concentration of test compound. […] A linear regression line of data points was plotted, from which the IC50 value is determined and the Ki value is determined based upon the following equation: Ki=IC50/(1+L/KD) where L was the concentration of the radioactive ligand used and KD is the dissociation constant of the ligand for the receptor, both expressed in nM.
Usually Ki stands for the equilibrium dissociation constant of an inhibitor or competing ligand from its target. Higher therefore signals a looser hold on the target. The molecule `NCCC(=O)Nc1cccc2c(S(=O)(=O)c3cccc4ccccc34)n[nH]c12` [Example 164, 3-Amino-N-[3-(naphthalene-1-sulfonyl)-1H-indazol-7-yl]-propionamide hydrochloride] showed a Ki of 0.01 to 10 nM.

Take `CC(N)CNc1ccc2[nH]nc(S(=O)(=O)c3cccc4ccccc34)c2c1` (stereo not drawn) [Example 159, N1-[3-(Naphthalene-1-sulfonyl)-1H-indazol-5-yl]-propane-1,2-diamine hydrochloride]: the Ki is 11 to 25 nM. Take `CCNCCOc1ccc2c(c1)c(S(=O)(=O)c1cccc3ccccc13)nn2C` [Example 44, Ethyl-{2-[1-methyl-3-(naphthalene-1-sulfonyl)-1H-indazol-5-yloxy]-ethyl}-amine]: the Ki lay within 0.01 to 10 nM.

Molecule `O=S(=O)(c1cccc2ccccc12)c1n[nH]c2ccc(OCCCNC3CC3)cc12` [Example 20, Cyclopropyl-{3-[3-(naphthalene-1-sulfonyl)-1H-indazol-5-yloxy]-propyl}-amine] yielded a Ki of 0.01 to 10 nM. `O=S(=O)(c1ccccc1)c1n[nH]c2c(OCCN3CCCC3)cccc12` [Example 92] returned a Ki of 0.01 to 10 nM. Molecule `CCCCNCCOc1ccc2[nH]nc(S(=O)(=O)c3ccccc3)c2c1` [Example 7, [2-(3-Benzenesulfonyl-1H-indazol-5-yloxy)-ethyl]-butyl-amine] yielded a Ki of 26 to 35 nM. The molecule `CCNCCOc1cccc2c(S(=O)(=O)c3ccccc3)nn(Cc3cccc(Cl)c3)c12` [Example 83] gave a Ki of 26 to 35 nM. `NCCNc1ccc2c(S(=O)(=O)c3cccc4ccccc34)n[nH]c2c1` [Example 170, N1-[3-(Naphthalene-1-sulfonyl)-1H-indazol-6-yl]-ethane-1,2-diamine dihydrochloride]: the Ki was 11 to 25 nM. As to `O=C(CCN1CCCCC1)Nc1ccc2c(S(=O)(=O)c3cccc4ccccc34)n[nH]c2c1` [Example 167, N-[3-(Naphthalene-1-sulfonyl)-1H-indazol-6-yl]-3-piperidin-1-yl-propionamide hydrochloride], the Ki lay in the range of 11 to 25 nM. Consider `NCCNc1cccc2c(S(=O)(=O)c3cccc4ccccc34)n[nH]c12` [Example 161, N1-[3-(Naphthalene-1-sulfonyl)-1H-indazol-7-yl]-ethane-1,2-diamine dihydrochloride], for which the Ki lay in the range of 11 to 25 nM. As for `O=S(=O)(c1ccccc1)c1n[nH]c2ccc(OCCNC3CC3)cc12` [Example 8, [2-(3-Benzenesulfonyl-1H-indazol-5-yloxy)-ethyl]-cyclopropyl-amine], the Ki is 26 to 35 nM. In turn, `CNCCOc1cc(OC)cc2c(S(=O)(=O)c3cccc4ccccc34)nn(Cc3cccc(Cl)c3)c12` [Example 119] gave a Ki of more than 45 nM.

As for `CN(C)CCOc1ccc2[nH]nc(S(=O)(=O)c3ccccc3)c2c1` [Example 1, [2-(3-Benzenesulfonyl-1H-indazol-5-yloxy)-ethyl]-dimethyl-amine], the Ki lay within 11 to 25 nM. With `CN(C)CCCc1ccc2[nH]nc(S(=O)(=O)c3cccc4ccccc34)c2c1` [Example 182, N,N-Dimethyl-N-{3-[3-(naphthylsulfonyl)-1H-indazol-5-yl]propyl}amine hydrochloride], the Ki lay within 0.01 to 10 nM. In the case of `CCNCCOc1cccc2c(S(=O)(=O)c3ccccc3)nn(C)c12` [Example 102], the Ki lay within 26 to 35 nM. In the case of `O=S(=O)(c1cccc2ccccc12)c1n[nH]c2c(OCCN3CCCCC3)cccc12` [Example 80] it was 0.01 to 10 nM; in that of `O=S(=O)(c1cccc2ccccc12)c1n[nH]c2ccc(OCCNC3CC3)cc12` [Example 36, Cyclopropyl-{2-[3-(naphthalene-1-sulfonyl)-1H-indazol-5-yloxy]-ethyl}-amine], 0.01 to 10 nM; in that of `O=S(=O)(c1ccccc1)c1nn(Cc2cccc(Cl)c2)c2c(OCCN3CCCCC3)cccc12` [Example 87], more than 45 nM. `CCN(C)CCOc1ccc2[nH]nc(S(=O)(=O)c3ccccc3)c2c1` [Example 2, [2-(3-Benzenesulfonyl-1H-indazol-5-yloxy)-ethyl]-ethyl-methyl-amine] returned a Ki of more than 45 nM. `O=S(=O)(c1cccc2ccccc12)c1n[nH]c2ccc(OCCN3CCOCC3)cc12` [Example 39, 5-(2-Morpholin-4-yl-ethoxy)-3-(naphthalene-1-sulfonyl)-1H-indazole] gave a Ki of 11 to 25 nM. For `CN(C)CCNC(=O)c1ccc2[nH]nc(S(=O)(=O)c3cccc4ccccc34)c2c1` [Example 151, N-[2-(Dimethylamino)ethyl]-3-(1-naphthylsulfonyl)-1H-indazole-5-carboxamide], the Ki lay in the range of 0.01 to 10 nM. `O=C(NCCN1CCCCC1)c1ccc2[nH]nc(S(=O)(=O)c3cccc4ccccc34)c2c1` [Example 152, 3-(1-Naphtylsulfonyl)-N-(2-piperidin-1-ylethyl)-1H-indazole-5-carboxamide] registered a Ki of more than 45 nM. As for `O=S(=O)(c1cccc2ccccc12)c1n[nH]c2ccc(OCCCCN3CCCCC3)cc12` [Example 61, 3-(1-naphthylsulfonyl)-5-(4-piperidin-1-ylbutoxy)-1H-indazole], the figure is 0.01 to 10 nM.

For `Cn1nc(S(=O)(=O)c2ccccc2)c2cccc(OCCN3CCCC3)c21` [Example 104], the inhibition constant (Ki) lay in the range of 26 to 35 nM. As for `Cn1nc(S(=O)(=O)c2cccc3ccccc23)c2cc(OCCN3CCCC3)ccc21` [Example 46, 1-Methyl-3-(naphthalene-1-sulfonyl)-5-(2-pyrrolidin-1-yl-ethoxy)-1H-indazole], the figure is 0.01 to 10 nM; as for `CC(C)NCCOc1ccc2[nH]nc(S(=O)(=O)c3ccccc3)c2c1` [Example 6, [2-(3-Benzenesulfonyl-1H-indazol-5-yloxy)-ethyl]-isopropyl-amine], 11 to 25 nM; as for `CCN(CC)CCC(=O)Nc1cccc2c(S(=O)(=O)c3cccc4ccccc34)n[nH]c12` [Example 166, 3-Diethylamino-N-[3-(naphthalene-1-sulfonyl)-1H-indazol-7-yl]-propionamide hydrochloride], 26 to 35 nM. The molecule `CCNCCOc1cccc2c(S(=O)(=O)c3ccccc3)n[nH]c12` [Example 89] gave a Ki of 0.01 to 10 nM. `O=S(=O)(c1cccc2ccccc12)c1nn(Cc2cccc(Cl)c2)c2c(OCCN3CCCC3)cc(F)cc12` [Example 112] yielded a Ki of more than 45 nM.

For `CCN(CC)CCOc1ccc2c(c1)c(S(=O)(=O)c1cccc3ccccc13)nn2C` [Example 43, Diethyl-{2-[1-methyl-3-(naphthalene-1-sulfonyl)-1H-indazol-5-yloxy]-ethyl}-amine], the Ki is 0.01 to 10 nM.

On to `CNCCCOc1ccc2[nH]nc(S(=O)(=O)c3cccc4ccccc34)c2c1` [Example 15, Methyl-{3-[3-(naphthalene-1-sulfonyl)-1H-indazol-5-yloxy]-propyl}-amine], for which the Ki was in the range of 0.01 to 10 nM. `CCNCCOc1ccc2c(c1)c(S(=O)(=O)c1cccc3ccccc13)nn2Cc1cccc(Cl)c1` [Example 60, {2-[1-(3-Chloro-benzyl)-3-(naphthalene-1-sulfonyl)-1H-indazol-5-yloxy]-ethyl}-ethyl-amine] had a Ki of 11 to 25 nM. Molecule `O=S(=O)(c1cccc2ccccc12)c1n[nH]c2ccc(CN3CCNCC3)cc12` [Example 195, 3-(1-Naphthylsulfonyl)-5-(piperazin-1-ylmethyl)-1H-indazole] returned a Ki of 0.01 to 10 nM.

`CC(C)NCCOc1ccc2c(c1)c(S(=O)(=O)c1cccc3ccccc13)nn2C` [Example 45, Isopropyl-{2-[1-methyl-3-(naphthalene-1-sulfonyl)-1H-indazol-5-yloxy]-ethyl}-amine] gave a Ki of 0.01 to 10 nM. As to `NCCOc1ccc2c(S(=O)(=O)c3cccc4ccccc34)n[nH]c2c1` [Example 146, 2-{[3-(1-Naphtylsulfonyl)-1H-indazol-6-yl]oxy}ethanamine], the Ki is 11 to 25 nM. Molecule `CCCCNCCOc1cccc2c(S(=O)(=O)c3cccc4ccccc34)nn(C)c12` [Example 98] gave a Ki of 26 to 35 nM.

Regarding `CN(C)CCCOc1cccc2c(S(=O)(=O)c3cccc4ccccc34)nn(Cc3cccc(Cl)c3)c12` [Example 130], the Ki was more than 45 nM. Molecule `CCN(CC)CCOc1cccc2c(S(=O)(=O)c3ccccc3)nn(C)c12` [Example 103] yielded an inhibition constant (Ki) of more than 45 nM. Molecule `O=S(=O)(c1ccccc1)c1n[nH]c2c(CCNC3CC3)cccc12` [Example 172, N-{2-[3-(phenylsulfonyl)-1H-indazol-7-yl]ethyl}cyclopropanamine hydrochloride] yielded a Ki of 11 to 25 nM. As for `CCNCCOc1cc(OC)cc2c(S(=O)(=O)c3cccc4ccccc34)nn(Cc3cccc(Cl)c3)c12` [Example 120], the Ki is more than 45 nM. The molecule `CN1CCN(Cc2ccc3[nH]nc(S(=O)(=O)c4cccc5ccccc45)c3c2)CC1` [Example 196] had a Ki of 0.01 to 10 nM. In the case of `NCCNCc1ccc2[nH]nc(S(=O)(=O)c3cccc4ccccc34)c2c1` [Example 155, N{[3-(1-Naphthylsulfonyl)-1H-indazol-5yl]methyl}ethane-1.2-diamine] it was 11 to 25 nM.
